Measured values taken from publication PMC12175533, “A cell-cell communication signal from Enterobacter cloacae interfering with the signaling systems and virulence in Shigella sonnei” (Applied and Environmental Microbiology, 2025).

Target: T1, YjgB (ECL_RS22935), alcohol dehydrogenase (Enterobacter cloacae, UniProt A0A0H3CR94)
T1 construct: gene ECL_04598; full-length ORF in pET-28a(+), His-tag fusion, E. coli BL21(DE3) with ZnCl2, HisTrap
Experiment: HPLC product formation assay
Assay type: biochemical
Settings: 200 uM substrate, 0.2 mM NADPH, 50 mM Tris-HCl, pH 8.0, 37 °C, 10 uM enzyme

T1 sequence (A0A0H3CR94 entry or part of it): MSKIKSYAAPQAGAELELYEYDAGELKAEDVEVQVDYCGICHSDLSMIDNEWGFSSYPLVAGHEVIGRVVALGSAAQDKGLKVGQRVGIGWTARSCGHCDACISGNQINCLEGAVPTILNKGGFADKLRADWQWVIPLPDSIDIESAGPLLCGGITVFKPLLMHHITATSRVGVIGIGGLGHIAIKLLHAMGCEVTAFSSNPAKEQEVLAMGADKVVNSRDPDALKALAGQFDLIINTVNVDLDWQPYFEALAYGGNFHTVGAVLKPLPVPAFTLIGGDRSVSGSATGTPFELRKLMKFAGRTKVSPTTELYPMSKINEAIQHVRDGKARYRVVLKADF

For `O=CCc1c[nH]c2ccccc12` [indole-3-acetaldehyde], the “HPLC product formation assay” value was “In vitro enzymatic assays demonstrated that YjgB directly catalyzed the conversion of indole-3-acetaldehyde to indole-3-ethanol”.

For `OCCc1c[nH]c2ccccc12` [indole-3-ethanol], the “HPLC product formation assay” value was “YjgB directly catalyzed the conversion of indole-3-acetaldehyde to indole-3-ethanol”.
